Assay results reported in patent EP1561465A2, “Methods of use of fluoroquinolone compounds against bacteria” (LG Life Sciences, Ltd., priority 1999, dated 2001).
≈ marks a conversion by molar mass, not a printed value. Read-outs that look alike come from different tables or passages of the source.

Key:
Type in all cases: cell-based
Moraxella catarrhalis = experiment: MIC by NCCLS reference broth microdilution, 450 respiratory tract pathogens
Haemophilus influenzae = experiment: as above; conditions: Haemophilus influenzae; for MIC90: read-out: MIC90
[1] = MIC by agar dilution, Brucella HK agar, 491 anaerobic clinical isolates; conditions: clinical isolates of Bacteroides spp., Prevotella bivia and other Prevotella spp.
Escherichia coli = experiment: MIC by NCCLS broth microdilution, 1100 Japanese clinical isolates 1997-1998; conditions: for MIC50 / MIC90: Escherichia coli
Staphylococcus aureus = experiment: microbe, parasite or virus in culture
Klebsiella oxytoca = experiment: MIC by NCCLS broth microdilution, 1100 Japanese clinical isolates 1997-1998; conditions: Klebsiella oxytoca (n=40)
Proteus vulgaris = experiment: as above; conditions: Proteus vulgaris (n=25)
E. coli = experiment: microbe, parasite or virus in culture; conditions: Escherichia coli
Enterobacter aerogenes = experiment: MIC by NCCLS broth microdilution, 1100 Japanese clinical isolates 1997-1998; conditions: Enterobacter aerogenes (n=35)
Streptococcus pyogenes = experiment: as above; conditions: Streptococcus pyogenes (n=51)
[2] = Haemophilus influenzae (n = 100)
[3] = Escherichia coli ciprofloxacin resistant (n=5)
[4] = Escherichia coli ciprofloxacin susceptible (n=37)

SMILES: C[C@@H]1CN(c2c(F)c(N)c3c(=O)c(C(=O)O)cn(C4CC4)c3c2F)C[C@H](C)N1 [Sparfloxacin, sparfloxacin]
- MIC (Moraxella catarrhalis; Moraxella catarrhalis (n = 50)): 0.00375 to 0.06 µg/mL (≈ 0.00956 to 0.153 µM)
- MIC50 (Moraxella catarrhalis; Moraxella catarrhalis (n = 50)): 0.015 µg/mL (≈ 0.0382 µM)
- MIC90 (Moraxella catarrhalis; Moraxella catarrhalis (n = 50)): 0.03 µg/mL (≈ 0.0765 µM)
- MIC (Moraxella catarrhalis; β-lactamase negative (n = 13)): 0.00375 to 0.06 µg/mL (≈ 0.00956 to 0.153 µM)
- MIC50 (Moraxella catarrhalis; β-lactamase negative (n = 13)): 0.0075 µg/mL (≈ 0.0191 µM)
- MIC90 (Moraxella catarrhalis; β-lactamase negative (n = 13)): 0.06 µg/mL (≈ 0.153 µM)
- MIC (Moraxella catarrhalis; β-lactamase positive (n = 37)): 0.00375 to 0.06 µg/mL (≈ 0.00956 to 0.153 µM)
- MIC50 (Moraxella catarrhalis; β-lactamase positive (n = 37)): 0.015 µg/mL (≈ 0.0382 µM)
- MIC90 (Moraxella catarrhalis; β-lactamase positive (n = 37)): 0.03 µg/mL (≈ 0.0765 µM)
- MIC (Haemophilus influenzae; [2]): 0.0075 to 0.25 µg/mL (≈ 0.0191 to 0.637 µM)
- MIC50 (Haemophilus influenzae; [2]): 0.01 µg/mL (≈ 0.0255 µM)
- MIC90 (Haemophilus influenzae; [2]): 0.03 µg/mL (≈ 0.0765 µM)
- MIC (Haemophilus influenzae; β-lactamase negative (n = 80)): 0.0075 to 0.25 µg/mL (≈ 0.0191 to 0.637 µM)
- MIC50 (Haemophilus influenzae; β-lactamase negative (n = 80)): 0.015 µg/mL (≈ 0.0382 µM)
- MIC90 (Haemophilus influenzae; β-lactamase negative (n = 80)): 0.25 µg/mL (≈ 0.637 µM)
- MIC (Haemophilus influenzae; β-lactamase positive (n = 20)): 0.0075 to 0.12 µg/mL (≈ 0.0191 to 0.306 µM)
- MIC50 (Haemophilus influenzae; β-lactamase positive (n = 20)): 0.015 µg/mL (≈ 0.0382 µM)
- MIC90 (Haemophilus influenzae; β-lactamase positive (n = 20)): 0.03 µg/mL (≈ 0.0765 µM)
- MIC90 [1]: 4 to 32 µg/mL (≈ 10.2 to 81.5 µM)
- MIC Range (Escherichia coli; [3]): 8 to 128 µg/mL
- MIC Range (Escherichia coli; [4]): ≤0.008 to 0.25 µg/mL
- MIC50 (Escherichia coli; [3]): 32 µg/mL (≈ 81.5 µM)
- MIC90 (Escherichia coli; Escherichia coli ciprofloxacin resistant (n=5), values marked *: MIC80 value): 128 µg/mL (≈ 326 µM)
- MIC50 (Escherichia coli; [4]): 0.016 µg/mL (≈ 0.0408 µM)
- MIC90 (Escherichia coli; [4]): 0.032 µg/mL (≈ 0.0815 µM)
- MIC Range (Staphylococcus aureus; Methicillin-resistant (38)): 0.063 to 64 µg/mL
- MIC Range (Staphylococcus aureus; Methicillin-susceptible (9)): 0.063 to 0.5 µg/mL
- MIC50 (Staphylococcus aureus; Staphylococcus aureus, Methicillin-resistant (38)): 2 µg/mL (≈ 5.1 µM)
- MIC90 (Staphylococcus aureus; Staphylococcus aureus, Methicillin-resistant (38), read-out: MIC90): 64 µg/mL (≈ 163 µM)
- MIC50 (Staphylococcus aureus; Staphylococcus aureus, Methicillin-susceptible (9)): 0.125 µg/mL (≈ 0.319 µM)
- MIC (Staphylococcus aureus; Staphylococcus aureus, S. aureus KU2240, mutant type Wild (wild strain)): 0.25 µg/mL (≈ 0.637 µM)
- MIC (Staphylococcus aureus; Staphylococcus aureus, S. aureus KU2241, mutant type NorA (efflux-mediated quinolone resistant)): 0.25 µg/mL (≈ 0.637 µM)
- MIC (Staphylococcus aureus; Staphylococcus aureus, S. aureus KU2242, mutant type T (DNA topoisomerase IV)): 0.25 µg/mL (≈ 0.637 µM)
- MIC (Staphylococcus aureus; Staphylococcus aureus, S. aureus KU2243, mutant type G+T (DNA gyrase and topoisomerase IV)): 64 µg/mL (≈ 163 µM)
- MIC (Staphylococcus aureus; Staphylococcus aureus, S. aureus KU2244, mutant type G (DNA gyrase)): 0.25 µg/mL (≈ 0.637 µM)
- MIC (Staphylococcus aureus; Staphylococcus aureus, S. aureus KU2245, mutant type G+T (DNA gyrase and topoisomerase IV)): 64 µg/mL (≈ 163 µM)
- MIC (Staphylococcus aureus; Staphylococcus aureus, S. aureus KU2246, mutant type T (DNA topoisomerase IV)): 0.25 µg/mL (≈ 0.637 µM)
- MIC50 (Klebsiella oxytoca): 0.063 µg/mL (≈ 0.161 µM)
- MIC90 (Klebsiella oxytoca): 8 µg/mL (≈ 20.4 µM)
- MIC Range (Klebsiella oxytoca): 0.016 to 32 µg/mL
- MIC Range (Proteus vulgaris): 0.063 to 2 µg/mL
- MIC50 (Proteus vulgaris; read-out: MIC50): 0.25 µg/mL (≈ 0.637 µM)
- MIC90 (Proteus vulgaris; read-out: MIC90): 1 µg/mL (≈ 2.55 µM)
- MIC50 (E. coli; E. coli (13 strains), quinolone-resistant, read-out: MIC50): 0.125 µg/mL (≈ 0.319 µM)
- MIC90 (E. coli; E. coli (13 strains), quinolone-resistant, read-out: MIC90): 0.5 µg/mL (≈ 1.27 µM)
- MIC (E. coli; E. coli KU1029, mutant type SP (spontaneous mutant in the DNA gyrase)): 0.031 µg/mL (≈ 0.079 µM)
- MIC (E. coli; E. coli KU1030, mutant type SP): 0.063 µg/mL (≈ 0.161 µM)
- MIC (E. coli; E. coli KU1031, mutant type SP): 0.031 µg/mL (≈ 0.079 µM)
- MIC (E. coli; E. coli KU1032, mutant type SP): 0.125 µg/mL (≈ 0.319 µM)
- MIC (E. coli; E. coli KU1033, mutant type SP): 0.031 µg/mL (≈ 0.079 µM)
- MIC (E. coli; E. coli KU1034, mutant type GA (DNA gyrase A)): 0.5 µg/mL (≈ 1.27 µM)
- MIC (E. coli; E. coli KU1035, mutant type GA (DNA gyrase A)): 0.5 µg/mL (≈ 1.27 µM)
- MIC (E. coli; E. coli KU1036, mutant type GB (DNA gyrase B)): 0.063 µg/mL (≈ 0.161 µM)
- MIC (E. coli; E. coli KU1038, mutant type SP): 0.031 µg/mL (≈ 0.079 µM)
- MIC (E. coli; E. coli KU1039, mutant type SP): 0.25 µg/mL (≈ 0.637 µM)
- MIC (E. coli; E. coli KU1040, mutant type SP): ≤ 0.008 µg/mL
- MIC (E. coli; E. coli KU1041, mutant type SP): 0.25 µg/mL (≈ 0.637 µM)
- MIC (E. coli; E. coli KU1042, mutant type SP): 0.063 µg/mL (≈ 0.161 µM)
- MIC Range (Enterobacter aerogenes): 0.016 to 0.25 µg/mL
- MIC50 (Enterobacter aerogenes; Klebsiella aerogenes): 0.032 µg/mL (≈ 0.0815 µM)
- MIC90 (Enterobacter aerogenes; Klebsiella aerogenes): 0.063 µg/mL (≈ 0.161 µM)
- MIC90 (Streptococcus pyogenes): 1 µg/mL (≈ 2.55 µM)
- MIC Range (Streptococcus pyogenes): 0.25 to 1 µg/mL
- MIC50 (Streptococcus pyogenes; read-out: MIC50): 0.5 µg/mL (≈ 1.27 µM)
